Source: ChEMBL document CHEMBL3351369, “Phenylpropanoid acid esters from Korean propolis and their antioxidant activities” (Bioorg Med Chem Lett, 2014)

Legend:
[1] = Antioxidant activity assessed as ABTS radical scavenging activity up to 1 mM after 12 hrs by spectrophotometry; type: physicochemical
[2] = Antioxidant activity assessed as DPPH radical scavenging activity up to 1 mM after 30 mins by spectrophotometry; type: physicochemical; conditions: 0.5 h
[3] = Ratio of compound IC50 to trolox IC50 for ABTS radical scavenging activity after 12 hrs by spectrophotometry
[4] = Ratio of compound IC50 to trolox IC50 for DPPH radical scavenging activity after 30 mins by spectrophotometry
[5] = Antioxidant activity assessed as ABTS radical scavenging activity after 12 hrs by spectrophotometry; type: physicochemical
[6] = Antioxidant activity assessed as DPPH radical scavenging activity after 30 mins by spectrophotometry; type: physicochemical; conditions: 0.5 h
[7] = Antioxidant activity assessed as hydroxyl radical scavenging activity at 50 uM after 30 mins by Fenton reaction-induced DNA single strand breakage method; type: physicochemical; conditions: 0.5 h

Structure (SMILES) | Activity [1] | Activity [2] | Ratio IC50 [3] | Ratio IC50 [4] | Activity [5] | Activity [6] | Activity [7]
O=C(/C=C/c1ccc(O)cc1)OCc1ccccc1 | Not Active | Not Active | > 500 | > 500 |  |  | 
O=C(/C=C/c1ccccc1)OC/C=C/c1ccccc1 | Not Active | Not Active | > 500 | > 500 |  |  | 
COc1cc(/C=C/C(=O)OCC=C(C)C)ccc1O |  |  | 23.1 | 105 | Dose-dependent effect | Dose-dependent effect | Not Active
O=C(/C=C/c1ccc(O)cc1)OC/C=C/c1ccccc1 | Not Active | Not Active | > 500 | > 500 |  |  | 
COc1ccc(/C=C/C(=O)OC/C=C/c2ccccc2)cc1OC |  |  | > 500 | > 500 |  |  | 
Cc1c(C)c2c(c(C)c1O)CCC(C)(C(=O)O)O2 (stereo not given) |  |  | 1 | 1 |  |  | 
O=C(/C=C/c1ccc(O)c(O)c1)OCc1ccccc1 [BENZYL CAFFEATE] |  |  | 3.42 | 3.86 | Dose-dependent effect | Dose-dependent effect | Active
COc1cc(/C=C/C(=O)OCc2ccccc2)ccc1O [BENZYL FERULATE] |  |  | 24.8 | 92.1 | Dose-dependent effect | Dose-dependent effect | Not Active
O=C(/C=C/c1ccc(O)c(O)c1)OCCc1ccccc1 [CAFFEIC ACID PHENETHYL ESTER] |  |  | 6.3 | 0.46 | Dose-dependent effect | Dose-dependent effect | Active
CCOC(=O)/C=C/c1ccc(O)c(O)c1 [ETHYL CAFFEATE] |  |  | 10.6 | 6.3 | Dose-dependent effect | Dose-dependent effect | Active
O=C(/C=C/c1ccccc1)OCCc1ccccc1 [PHENETHYL CINNAMATE] | Not Active | Not Active | > 500 | > 500 |  |  | 
